Laboratory results reported in the supplement of paper PMC6045584.
± gives the standard deviation of the averaged measurements.

Each test system was assayed with CO[C@H]1C[C@@H]2CC[C@@H](C)[C@@](O)(O2)C(=O)C(=O)N2CCCC[C@H]2C(=O)O[C@H]([C@H](C)C[C@@H]2CC[C@@H](OCCO)[C@H](OC)C2)CC(=O)[C@H](C)/C=C(\C)[C@@H](O)[C@@H](OC)C(=O)[C@H](C)C[C@H](C)/C=C/C=C/C=C/1C [EVEROLIMUS] (assay: surviving fraction relative to DMSO-only wells; higher = less growth inhibition). Conditions: 500 nM; exposure time: 5 days.
In short: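 Lines were retained only if, across three screens, replicate Pearson r was >0.7 and median Z' was >0.3. Viability was measured as CellTiter-Glo luminescence and reported as surviving fraction relative to the median of DMSO-only wells. Readings followed 10 minutes at room temperature, after log-phase tumour cells seeded at 250–500 per well in 384-well plates had been exposed, from 24 hours after seeding, continuously for five days to inhibitors at 0.5, 1, 5, 10, 50, 100, 500 and 1000 nM.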
Work on 22RV1 PROSTATE yielded a surviving fraction of 0.365 ± 0.061. For 93VU HEADNECK, the surviving fraction was 0.706 ± 0.027. With 143B BONE the surviving fraction was 0.793 ± 0.057. For A549 LUNG, the surviving fraction was 0.777 ± 0.0096. Test System ASKA SYNOVIAL has a surviving fraction of 0.531 ± 0.036. BT20 BREAST was tested, and the surviving fraction was 0.34 ± 0.018. For BT549 BREAST, the surviving fraction was 0.365 ± 0.017. Work on CADOES1 SOFT TISSUE yielded a surviving fraction of 0.259 ± 0.017. CAL51 BREAST was tested, and the surviving fraction was 0.257 ± 0.039. CAL120 BREAST showed a surviving fraction of 0.424 ± 0.021. Work on CASKI CERVIX yielded a surviving fraction of 0.376 ± 0.0098. CHLA90 AUTONOMIC GANGLIA was tested, and the surviving fraction was 0.355 ± 0.067. CME SYNOVIAL showed a surviving fraction of 0.66 ± 0.085. For COLO320DM LARGE INTESTINE, the surviving fraction was 0.695 ± 0.047. DU4475 BREAST gave a surviving fraction of 0.103 ± 0.0061. For H23 LUNG, the surviving fraction was 0.405 ± 0.048. For HCC38 BREAST, the surviving fraction was 0.733 ± 0.024. In the case of HCC70 BREAST, the surviving fraction is reported as 0.44 ± 0.054. Test System HCC78 LUNG has a surviving fraction of 0.358 ± 0.052. In the case of HCC202 BREAST, the surviving fraction is reported as 0.44 ± 0.054. HCC1806 BREAST gave a surviving fraction of 0.669 ± 0.11. For HCC1954 BREAST, the surviving fraction was 0.249 ± 0.039. In the case of HCT15 LARGE INTESTINE, the surviving fraction is reported as 0.476 ± 0.046. For HELA CERVIX, the surviving fraction was 1.09 ± 0.036. HMLE3 BREAST gave a surviving fraction of 0.322 ± 0.044. HMT3552 BREAST was tested, and the surviving fraction was 0.545 ± 0.05. HOS BONE gave a surviving fraction of 0.711 ± 0.033. For HOSMNG BONE, the surviving fraction was 0.999 ± 0.085. In the case of HS57T BREAST, the surviving fraction is reported as 0.373 ± 0.024. Test System HS578T BREAST has a surviving fraction of 0.471 ± 0.044. HSSYII SYNOVIAL gave a surviving fraction of 0.416 ± 0.051. HT1080 SOFT TISSUE gave a surviving fraction of 0.477 ± 0.036. HU09 BONE showed a surviving fraction of 0.382 ± 0.016. JIMT1 BREAST was tested, and the surviving fraction was 0.5 ± 0.016. “JURKAT HAEMATOPOIETIC AND LYMPHOID TISSUE” showed a surviving fraction of 0.326 ± 0.021. In the case of KPD BONE, the surviving fraction is reported as 0.343 ± 0.012. Work on LM7 BONE yielded a surviving fraction of 0.674 ± 0.087. Test System MCF7 BREAST has a surviving fraction of 0.504 ± 0.021. With MDAMB134 BREAST the surviving fraction was 0.569 ± 0.11. MDAMB157 BREAST gave a surviving fraction of 0.598 ± 0.041.

Same assay, conditions: 1000 nM; exposure time: 5 days
In the case of 22RV1 PROSTATE, the surviving fraction is reported as 0.375 ± 0.028. Test System 93VU HEADNECK has a surviving fraction of 0.649 ± 0.049. With 143B BONE the surviving fraction was 0.827 ± 0.096. Work on A549 LUNG yielded a surviving fraction of 0.759 ± 0.058. Test System ASKA SYNOVIAL has a surviving fraction of 0.577 ± 0.04. BT20 BREAST showed a surviving fraction of 0.374 ± 0.018. Work on BT549 BREAST yielded a surviving fraction of 0.356 ± 0.027. For CADOES1 SOFT TISSUE, the surviving fraction was 0.268 ± 0.04. In the case of CAL51 BREAST, the surviving fraction is reported as 0.26 ± 0.025. Test System CAL120 BREAST has a surviving fraction of 0.412 ± 0.0054. With CASKI CERVIX the surviving fraction was 0.379 ± 0.014. For CHLA90 AUTONOMIC GANGLIA, the surviving fraction was 0.344 ± 0.085. For CME SYNOVIAL, the surviving fraction was 0.77 ± 0.1. With COLO320DM LARGE INTESTINE the surviving fraction was 0.652 ± 0.025. Test System DU4475 BREAST has a surviving fraction of 0.0877 ± 0.012. H23 LUNG showed a surviving fraction of 0.433 ± 0.03. For HCC38 BREAST, the surviving fraction was 0.852 ± 0.027. In the case of HCC70 BREAST, the surviving fraction is reported as 0.429 ± 0.01. HCC78 LUNG showed a surviving fraction of 0.327 ± 0.055. HCC202 BREAST showed a surviving fraction of 0.385 ± 0.14. HCC1806 BREAST was tested, and the surviving fraction was 0.74 ± 0.12. Test System HCC1954 BREAST has a surviving fraction of 0.275 ± 0.037. HCT15 LARGE INTESTINE gave a surviving fraction of 0.542 ± 0.037. In the case of HELA CERVIX, the surviving fraction is reported as 1.16 ± 0.055. HMLE3 BREAST gave a surviving fraction of 0.306 ± 0.019. Test System HMT3552 BREAST has a surviving fraction of 0.549 ± 0.067. HOS BONE was tested, and the surviving fraction was 0.721 ± 0.0092. Test System HOSMNG BONE has a surviving fraction of 1.03 ± 0.027. With HS57T BREAST the surviving fraction was 0.387 ± 0.045. HS578T BREAST gave a surviving fraction of 0.468 ± 0.017. For HSSYII SYNOVIAL, the surviving fraction was 0.3632 ± 0.0025. Work on HT1080 SOFT TISSUE yielded a surviving fraction of 0.477 ± 0.036. Test System HU09 BONE has a surviving fraction of 0.39 ± 0.023. JIMT1 BREAST showed a surviving fraction of 0.494 ± 0.036. Test System “JURKAT HAEMATOPOIETIC AND LYMPHOID TISSUE” has a surviving fraction of 0.275 ± 0.018. For KPD BONE, the surviving fraction was 0.338 ± 0.02. In the case of LM7 BONE, the surviving fraction is reported as 0.609 ± 0.044. MCF7 BREAST showed a surviving fraction of 0.514 ± 0.024. Test System MDAMB134 BREAST has a surviving fraction of 0.573 ± 0.09. MDAMB157 BREAST gave a surviving fraction of 0.572 ± 0.095.
